Like-named read-outs stand apart in the source and are kept apart here.

The nature of series [1]: skin permeability measurement in Franz diffusion cell after microheater microablation. On the procedure:
Microheater components are tested for use in ablation of stratum corneum and increasing barrier permeability and increased drug transport by assessing transport across cadaver skin by three different molecules. Calcein is a low molecular weight (623 Da) fluorescent molecule used to measure skin permeability by spectrofluorimetric assay and image transport pathways in skin by confocal microscopy. […] Insulin is a polypeptide (6 kDa) that will be used for comparison with in vivo studies involving insulin delivery to diabetic rats. To perform skin permeability measurements, cadaver epidermis is placed in a Franz diffusion cell at 37° C. and an array of microheaters is then positioned on the stratum corneum side and thermally activated to cause microablation. […] Every hour, or more frequently, 1 ml of receptor solution is sampled, and replaced with fresh saline, and fluorescence intensity is measured using calibrated spectrofluorometry and analyzed to determine rates of transdermal delivery.

Series [2] can be described thus: insulin delivery through micropores in streptozotocin-diabetic rats. The class given is in vivo, rat. The following applies: treated skin area exposed to Humulin-R insulin solution. On the procedure:
(§1) The in vivo skin model is a Sprague-Dawley hairless rat, a commonly used model for human skin permeability due to the similarity of hairless rat and human skin. For initial studies, rats ARE anesthetized by intraperitoneal injection of urethane (1000 mg/kg) and treated with a thermal treatment device of the present invention. The skin is exposed either briefly to a blue tissue marking dye to visualize the size and location of pores, or exposed for over an hour to a calcein solution to image the transdermal transport process. After sacrificing the animal, skin specimens are excised and prepared for histological examination by cryostat sectioning.
For insulin delivery studies, rats are made diabetic by intravenous injection with 100 mg/kg streptozotocin, which produces diabetes the next day due to destruction of pancreatic islet cells. Under urethane anesthesia, skin is treated with a thermal treatment device of the present invention and the treated skin area is exposed to an Humulin-R insulin solution. Blood samples are collected by tail veil laceration over time to measure glucose concentration using a FreeStyle glucose monitor to determine pharmacodynamic response and to measure insulin concentration by radioimmunoassay to determine pharmacokinetic response, after which the animal is sacrificed.

A short description of series [3]: in vivo transport into and across skin treated with thermal treatment device. The conditions noted are these: hairless rat skin treated with thermal treatment device; brief exposure to dye or over an hour to calcein solution. Further details: species or system Sprague-Dawley hairless rat. As to the method:
as §1

Take Insulin: in series [1] (cadaver epidermis, Franz diffusion cell at 37° C., after microablation by microheater array, added individually to donor compartment), the “transport across cadaver skin (measured in receptor solution)” value is listed as “later measured in the receptor solution”. For the same compound, in series [2], the “blood glucose (pharmacodynamic response)” value was “response to glucose control” and the “insulin concentration in blood (radioimmunoassay, pharmacokinetic response)” value is recorded as “insulin in the blood”.
With `O=C(O)CN(CC(=O)O)Cc1cc2c(cc1O)Oc1cc(O)c(CN(CC(=O)O)CC(=O)O)cc1C21OC(=O)c2ccccc21` [Calcein], the “transport across cadaver skin (measured in receptor solution)” value in series [1] was “later measured in the receptor solution”. Besides, the “transport into micropores and across the epidermis (histological tissue sections)” value in series [3] was “show transport of the molecules into the micropores and with time, transport across the epidermis”.

Values taken from patent publication US8690865B2, “Methods and devices for thermal treatment” (Georgia Tech Research Corporation, priority 2004, dated 2014).
